Laboratory results reported in US20060235068A1, “OPHTHALMOLOGICAL SURGERY COLORANT AND DELIVERY SYSTEM” (priority 2000, published 2006).

Columns and labels:
[1] = tested on: ILM, the epiretinal membrane; experiment: ILM / epiretinal membrane peeling with indocyanine green staining in human patients; format: in vivo; details: human patients having macular holes, epiretinal membranes, or both
Text: The procedures of Example are followed using human patients having macular holes, epiretinal membrances, or both.

[2] = Contrast characteristics of indocyanine green colorant after exposure; format: physicochemical; details: exposed to air, room temperature and lighted atmospheric conditions; at least 8 hours up to one month after exposure, or longer
[3] = upon mixing; as marketed; cited from earlier work

Procedure for retinal ILM: Human cadaveric eyes are examined in the laboratory to determine if the ICG solution stains the retinal ILM. The entire anterior segment of the eye is excised to gain access to the vitreous cavity. […] The dye is left in place on the macula for 5 minutes. […] A bent 22 g needle is used to create the initial ILM tear. Intraocular foreign body forceps are then used to grasp the elevated ILM edge. The ILM is peeled in a continuous, circular manner similar to a capsulorhexis in cataract surgery. In each case, the ILM peel removes 3 to 4 disc diameters of ILM centered approximately on the fovea. Peeled ILM and cadaver eyes are fixed in 10% buffered formalin for histopathologic preparation. Specimens are evaluated by light microscopy.
The peeled ILM and sectioned globes are submitted for histopathologic evaluation and electron microscopy. Periodic acid-Schiff (PAS) stain is used to identify the ILM.

contrast characteristics after exposure [2]: satisfactory contrast characteristics
Structure (SMILES): CC1(C)C(/C=C/C=C/C=C/C=C2\N(CCCCS(=O)(=O)O)c3ccc4ccccc4c3C2(C)C)=[N+](CCCCS(=O)(=O)[O-])c2ccc3ccccc3c21 [indocyanine green]
peeling of the ILM, the epiretinal membrane or both [1]: Successful peeling
staining of the underlying retina (retinal ILM; after the ICG is removed, needle penetrated through the ILM): unstained underlying retina
staining of the underlying ILM when posterior hyaloid remains attached (retinal ILM; compared with globes in which the posterior cortical vitreous was removed prior to ICG injection): less staining of the underlying ILM
effect of staining on ILM peeling (retinal ILM; contrast between stained ILM and unstained retina): facilitates the continuation of ILM peeling
fluorescence stability [3]: about 10 hours
